Data set [1] can be described thus: Metabolic stability in mouse liver microsomes assessed as parent compound remaining at 1 uM measured upto 60 mins in presence of NADPH by LC-MS/MS analysis. Conditions: read-out: Stabilty. Type of data set: ADME, Microsome.
The nature of data set [2]: Metabolic stability in rat liver microsomes assessed as parent compound remaining at 1 uM measured upto 60 mins in presence of NADPH by LC-MS/MS analysis. The class given is ADME, Microsome. The following applies: read-out: Stabilty. A general note: Liver microsomes are a subcellular fraction often used to study metabolism.
Data set [3] in a line: Metabolic stability in human liver microsomes assessed as parent compound remaining at 1 uM measured upto 60 mins in presence of NADPH by LC-MS/MS analysis. The class given is ADME, Microsome. Conditions: read-out: Stabilty.
Data set [4] is described as follows: Initial plasma concentration in CD1 mouse at 3 mg/kg, iv by LC-MS/MS analysis. Type of data set: ADME, organism-based.
Data set [5] in a line: AUC (0 to t) in CD-1 mouse at 3 mg/kg, iv measured up to 24 hrs by LC-MS/MS analysis. The class given is ADME, organism-based. More on the design: route intravenous, dose 3 mg/kg, time <=24. The following applies: in vivo.
Data set [6] in a line: Volume of distribution in CD1 mouse at 3 mg/kg, iv measured up to 24 hrs by LC-MS/MS analysis. Type of data set: ADME, organism-based. Conditions: in vivo.
Data set [7] in a line: Clearance in CD1 mouse at 3 mg/kg, iv measured up to 24 hrs by LC-MS/MS analysis. The class given is ADME, organism-based. The following applies: in vivo.
Data set [8] can be described thus: Half life in CD1 mouse at 3 mg/kg, iv measured up to 24 hrs by LC-MS/MS analysis. The class given is ADME, organism-based. Conditions: in vivo.
Data set [9] can be described thus: Cmax in CD1 mouse at 10 mg/kg, po measured up to 24 hrs by LC-MS/MS analysis. The class given is ADME, organism-based. More on the design: route oral, dose 10 mg/kg, time <=24. The following applies: in vivo.
Data set [10] in a line: AUC (0 to t) in CD-1 mouse at 10 mg/kg, po measured up to 24 hrs by LC-MS/MS analysis. Conditions: in vivo. More on the design: route oral, dose 10 mg/kg, time <=24. Type of data set: ADME, organism-based.
Data set [11] in a line: Tmax in CD1 mouse at 10 mg/kg, po measured up to 24 hrs by LC-MS/MS analysis. The class given is ADME, organism-based. Conditions: in vivo.
Data set [12] can be described thus: Oral bioavailability in CD1 mouse at 10 mg/kg measured up to 24 hrs by LC-MS/MS analysis. Type of data set: ADME, organism-based. Conditions: in vivo.
A short description of the next data set: in vitro. The following applies: human, Caco-2.

Bounds are passed on as bounds.

As to `Cc1cc(-c2nc(C(=O)Nc3cc4oc(N5CCOCC5)nc4nc3N3CC[C@H](O)C3)co2)ccn1`, the remaining at 1 h, 1 µM in [1], in data set [2] and in data set [3] was above 95% each time. Besides, in data set [4], the C0 turned out to be 788 ng/mL. Also, the area under the curve AUC(0-t) (commonly the area under the concentration-time curve up to a stated or last time point) at 24 h in [5] was determined as 928 ng·h/mL; in data set [10], 4490 ng·h/mL. The Vd (in general, a proportionality between amount in the body and measured concentration, not a real space) in data set [6] is 5.57 L/kg. The clearance (usually the volume of plasma or blood freed of the substance per unit of time) in data set [7] is 52.2 mL/min/kg. Moreover, the half-life (as a rule, the time needed for the level to fall by half in the phase considered) in [8] is 48 min. In data set [9], the highest level (Cmax) was 2530 ng/mL. The Tmax – broadly, the time from dosing to the highest level – in [11] was 18 min. In addition, the bioavailability (as a rule, dose-corrected exposure relative to a reference, in per cent) in data set [12] was determined as 100%. Further, the Papp A→B (commonly how fast a substance crosses the layer from the apical side) at 2 h, 10 µM in the data set “in vitro” amounted to 21.9 ×10⁻⁶ cm/s.
Take `Cc1cc(-c2nc(C(=O)Nc3cc4oc(N5CCOCC5)nc4nc3C3CC3)co2)ccn1`: the remaining at 1 h, 1 µM in data set [1] was 13%; in data set [2], above 95%; in data set [3], 87%. Also, in the data set “in vitro”, the apical-to-basolateral permeability (Papp A→B) at 2 h, 10 µM came out at 49.4 ×10⁻⁶ cm/s.
Consider `Cc1cc(-c2nc(C(=O)Nc3cc4oc(N5CCOCC5)nc4nc3N3CCC(O)CC3)co2)ccn1`, for which the remaining at 1 h, 1 µM in data set [1], in [2] and in [3] was above 95% each time. In the data set “in vitro”, this molecule showed a Papp A→B at 2 h, 10 µM of 13.5 ×10⁻⁶ cm/s.
Take `Cc1cc(-c2nc(C(=O)Nc3cc4oc(N5CCOCC5)nc4nc3N3CC[C@@H](N)C3)co2)ccn1`: the remaining at 1 h, 1 µM in [1] is 82%; in [2], above 95%; in data set [3], above 95%. Further, in the data set “in vitro”, the Papp A→B at 2 h, 10 µM is 1 ×10⁻⁶ cm/s.
Turning to `Cc1cc(-c2nc(C(=O)Nc3cc4oc(N5CCOCC5)nc4nc3N3CC[C@@H](F)C3)co2)ccn1`, the remaining at 1 h, 1 µM amounted to 88% in [1], 95% in data set [2] and 95% in data set [3]. The molecule further had a Papp A→B at 2 h, 10 µM in the data set “in vitro” of 54.2 ×10⁻⁶ cm/s.

These data come from ChEMBL document CHEMBL4665913, “Discovery of CA-4948, an Orally Bioavailable IRAK4 Inhibitor for Treatment of Hematologic Malignancies” (ACS Med Chem Lett, 2020).
